How the values were obtained:
human D4 (D4.4 variant) [1] = molecular target: T1, human D4 (D4.4 variant) (Homo sapiens, UniProt P21917); assay: biochemical; type: binding
T1 sequence (P21917 1-419): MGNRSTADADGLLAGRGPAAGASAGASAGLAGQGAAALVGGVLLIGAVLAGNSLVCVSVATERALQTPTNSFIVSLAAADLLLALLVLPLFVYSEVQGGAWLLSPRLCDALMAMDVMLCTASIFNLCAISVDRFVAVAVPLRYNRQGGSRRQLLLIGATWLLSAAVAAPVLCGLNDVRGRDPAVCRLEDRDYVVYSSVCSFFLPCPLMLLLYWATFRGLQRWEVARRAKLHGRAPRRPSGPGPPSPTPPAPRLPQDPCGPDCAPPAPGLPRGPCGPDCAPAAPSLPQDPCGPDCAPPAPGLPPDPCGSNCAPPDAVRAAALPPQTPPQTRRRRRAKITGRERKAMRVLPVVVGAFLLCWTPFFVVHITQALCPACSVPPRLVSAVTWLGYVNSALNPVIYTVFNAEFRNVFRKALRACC

[2] = molecular target: human D2 (D2 long receptor) (Homo sapiens, UniProt P14416); assay: biochemical; type: binding
Chain of human D2 (D2 long receptor) (P14416 whole entry): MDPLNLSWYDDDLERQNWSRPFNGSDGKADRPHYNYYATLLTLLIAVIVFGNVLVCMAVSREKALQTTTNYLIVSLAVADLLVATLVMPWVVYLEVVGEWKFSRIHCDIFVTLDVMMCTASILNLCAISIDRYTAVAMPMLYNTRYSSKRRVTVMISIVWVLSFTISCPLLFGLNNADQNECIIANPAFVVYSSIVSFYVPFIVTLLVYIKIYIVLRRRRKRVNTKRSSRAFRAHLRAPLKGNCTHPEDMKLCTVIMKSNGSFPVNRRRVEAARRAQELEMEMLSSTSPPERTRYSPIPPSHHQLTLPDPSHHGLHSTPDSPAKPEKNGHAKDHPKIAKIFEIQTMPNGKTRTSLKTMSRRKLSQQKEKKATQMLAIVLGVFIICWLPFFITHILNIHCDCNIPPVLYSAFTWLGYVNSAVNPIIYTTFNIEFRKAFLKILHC

human D3 = human D3 (Homo sapiens, UniProt P35462); assay: D3 radioligand binding assay
Chain of human D3 (P35462 whole entry): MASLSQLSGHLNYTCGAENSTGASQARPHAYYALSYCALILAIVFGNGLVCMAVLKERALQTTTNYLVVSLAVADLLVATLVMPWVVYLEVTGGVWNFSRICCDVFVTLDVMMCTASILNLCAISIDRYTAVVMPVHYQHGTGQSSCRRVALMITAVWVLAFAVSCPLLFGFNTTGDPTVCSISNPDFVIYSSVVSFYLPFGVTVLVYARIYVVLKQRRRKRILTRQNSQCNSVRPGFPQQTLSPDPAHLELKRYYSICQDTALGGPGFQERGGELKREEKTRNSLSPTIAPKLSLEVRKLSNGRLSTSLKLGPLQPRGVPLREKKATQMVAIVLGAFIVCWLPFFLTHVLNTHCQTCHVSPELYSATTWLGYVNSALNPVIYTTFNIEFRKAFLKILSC

human D4 (D4.4 variant) [3] = molecular target: T1, human D4 (D4.4 variant); assay: cell-based
cloned human D4 = molecular target: T2, cloned human D4 (Homo sapiens, UniProt P21917); assay: cell-based; settings: Tango EC50, D4 β-arrestin
T2 sequence (P21917 1-419): T1 sequence (P21917 1-419)

human D4 [4] = molecular target: T3, human D4 (Homo sapiens, UniProt P21917); assay: cell-based
T3 sequence (P21917 1-419): T1 sequence (P21917 1-419)

human D4 [5] = molecular target: T3, human D4; assay: Arrestin BRET; type: cell-based
D4 dopamine receptor = assay: Signaling bias, G protein versus β-arrestin, versus quinpirole; type: cell-based, human

| Ki (human D4 (D4.4 variant) [1]) [µM] | Ki [2] [µM] | Ki (human D3) [µM] | EC50 (human D4 (D4.4 variant) [3]) [µM] | EC50 (cloned human D4) [µM] | EC50 (human D4 [4]) [µM] | EC50 (human D4 [5]) [µM] | SMILES | β-arrestin bias (D4 dopamine receptor) |
| --- | --- | --- | --- | --- | --- | --- | --- | --- |
| 0.82 | > 10 | > 10 | – | – | – | – | C[C@@H]1CCCN(C(C)(C)CNc2nc(C3CC3)ns2)C1 [ZINC92642352] | – |
| 0.26 | > 10 | 3.57 | 10.4 | – | – | – | Cc1ccc(CNCCCn2cccn2)cc1Br [ZINC127859549] | – |
| 0.3 | > 10 | > 10 | – | – | – | – | O[C@]1(CNCc2cnn(-c3ccc(Br)cc3)c2)CCSC1 [ZINC176752603] | – |
| 0.18 | 5.72 | 1.07 | – | – | – | – | Cc1cccc(CCNCc2ccn(-c3ccccc3)n2)c1 [ZINC237938360] | – |
| 0.21 | > 10 | > 10 | – | – | – | – | CC(C)N1C[C@H](C)[C@H](NC(=O)c2cccc3cc[nH]c23)C1 [ZINC247398558] | – |
| 0.56 | > 10 | > 10 | 9.9 | – | – | – | C[C@H]1CN(C2CC2)C[C@H]1NC(=O)c1cc2cc([N+](=O)[O-])ccc2s1 [ZINC268141382] | – |
| 0.27 | > 10 | > 10 | 0.041 | 22.3 | – | – | C=Cn1cc(CNC[C@@H](CO)Cc2ccccc2Br)cn1 [ZINC278933042] | – |
| 0.25 | 5.88 | 6.54 | – | – | – | – | OC[C@H](Cc1ccc(F)cc1)NCc1ccn(-c2ccccc2)n1 [ZINC358506216] | – |
| 0.18 | > 10 | > 10 | – | – | – | – | C#CCOc1ccccc1CN1CC[C@@]2(C1)C(=O)Nc1ccccc12 [ZINC375299581] | – |
| 0.99 | 2 | 5.87 | – | – | – | – | CCCC[C@H](CN)NC(=O)Nc1cnn(-c2ccc(C)cc2C)c1 [ZINC415558697] | – |
| 0.19 | > 10 | > 10 | 10.4 | – | – | – | C[C@H](N[C@H](CO)Cc1ccccc1)c1cc2c(s1)CCC2 [ZINC437075156] | – |
| 0.76 | > 10 | > 10 | – | – | – | – | CCC(CC)[C@@H](O)CNCc1cnc(-c2ccccc2F)s1 [ZINC449156693] | – |
| 0.7 | > 10 | > 10 | 34.8 | – | – | – | C[C@H]1CN(C2CC2)C[C@H]1NC(=O)c1cc2cc(Br)ccc2o1 [ZINC467716766] | – |
| 0.85 | > 10 | > 10 | 4.82 | – | – | – | CCC[C@H](C)[C@H](CO)NCCc1nc(-c2ccc(Cl)cc2)no1 [ZINC567992445] | – |
| 0.55 | > 10 | > 10 | 7.8 | – | – | – | C=C(C)COCCNC[C@H](O)Cc1ccc(C(F)(F)F)cc1 [ZINC569686370] | – |
| 0.91 | > 10 | > 10 | – | – | – | – | CC1(C)CCN(CC(=O)NC[C@@H]2CCC[C@H]2C2CC2)C1 [ZINC572302473] | – |
| 0.98 | > 10 | > 10 | – | – | – | – | N#Cc1ccnc(SC[C@]2(O)CCN(Cc3ccccc3)C2)c1 [ZINC601953994] | – |
| 0.669 | > 10 | > 10 | 0.35 | 0.898 | 3.15 | 1.25 | CC(C)N1C[C@H](C)[C@H](NC(=O)N2Cc3ccccc3[C@@H]2C)C1 [ZINC621433143] | 7 |
| 0.81 | > 10 | > 10 | – | – | – | – | O=C(CN1C[C@@H](O)C[C@@H]1C1CC1)Nc1ccc(Br)cc1 [ZINC640028109] | – |
| 0.44 | > 10 | > 10 | 31 | – | – | – | C[C@H](CNC(=O)c1coc2ccc(Cl)cc12)N1CCCC1 [ZINC651262870] | – |

Reference: publication PMC6383769 (Nature, 2019)
